The values below are quoted from earlier work in US20200397744A1, “COMPOSITIONS COMPRISING CO-CRYSTALS OF STILBENOIDS AND CANNABINOIDS” (priority 2018, published 2020).

One series has as its system cancer cell lines. The settings on record: cancer cell lines in vitro.
The conditions of series [1]: in vivo.

In the case of `CN(C)C(=N)N=C(N)N` [metformin], in the series on hyperglycemic rats, the “decrease of plasma glucose levels” value was 48%.
As to `COc1cc(/C=C/c2ccc(O)cc2)cc(OC)c1` [pterostilbene, trans-3,5-dimethoxy-4′-hydroxystilbene], the cytotoxic activity result in the series with cancer cell lines is “cytotoxic activity”. In addition, the bioavailability result in series [1] is “poor bioavailability”.
